Results reported in US12517136B2, “Il-17F-specific capture agents, compositions, and methods of using and making” (California Institute of Technology, priority 2015, dated 2026).
Where two headings read alike, the source gives them in different places. Each block holds one compound with its values, some of them ahead of it. Bridge positions count the residues as written; N and C are the ends. Square brackets hold non-standard residues; d marks the D form. Triazole bridges read from a SMILES are 1,4-linked. Peptide text beside a SMILES is read from it. * marks the point of attachment. ξ: configuration not given here. X2 = O=C(CCCC[C@@H]1SC[C@@H]2NC(=O)N[C@@H]21)NCCCOCCOCCOCCCN*; X1 = O=C(CCCCC1SC[C@H]2NC(=O)N[C@@H]12)NCCCOCCOCCOCCCN*; Biotin = O=C1N[C@H]2[C@H](CS[C@H]2CCCCC(=O)*)N1; Lys(N3) = [N-]=[N+]=NCCCC[C@H](N)C(=O)O; Thr(3ξ) = CC(O)[C@H](N)C(=O)O; AEEEA = NCCOCCOCCOCC(=O)O; Pra = C#CC[C@H](N)C(=O)O

Legend:
[1] = test system: full-length His-tagged IL-17F and IL-17A proteins; experiment: Point ELISA (IL-17F vs. IL-17A selectivity assay); assay type: binding, human; conditions: figure legends FIG. 2B, 4B, 4C
Description: Point ELISA (IL-17F vs. IL-17A selectivity assay). A black 96-well NeutrAvidin Coated High Binding Capacity plate (15510, Pierce) was coated with 2 μM macrocyclic peptide ligand in TBS (pH 7.6) for 2 h at room temperature. The plate was aspirated and then washed with TBS (5×) and Wash Buffer (0.05% (v/v) Tween-20 in PBS, 1×). Full-length His-tagged IL-17F (ab167911, Abcam) and IL-17A (ab166882, Abcam) proteins were prepared at 200 and 50 nM in Wash Buffer and incubated in the designated microwells for 90 min at room temperature. Microwells were aspirated and subsequently washed with Wash Buffer (10×). To detect the bound IL-17F and IL-17A proteins, Alkaline Phosphatase (AP)-conjugated Anti-6×His Tag® antibody [HIS-1] (ab49746, Abcam) was prepared at 1:10,000 dilution and added to the microwells for 1 h at room temperature. The plate was aspirated and washed with Wash Buffer (5×). AttoPhos® AP Fluorescent Substrate System (S1000, Promega) was employed to develop the microwells. Using an excitation wavelength of 430 nm, fluorescent emission at 535 nm was recorded by Beckman Coulter DTX880 photometer.
(§1) For these assays, the full-length His-tagged IL-17F and IL-17A proteins were captured using the macrocyclic peptide ligands immobilized on a NeutrAvidin-coated plate.
Point ELISA (IL-17F vs. IL-17A selectivity assay). A black 96-well NeutrAvidin Coated High Binding Capacity plate (15510, Pierce) was coated with 2 μM macrocyclic peptide ligand in TBS (pH 7.6) for 2 h at room temperature. Biotinylated monoclonal anti-IL17F (TA319597, Origene) was coated at 4 μg/mL in TBS as a control. The plate was aspirated and then washed with TBS (5×) and Wash Buffer (0.05% (v/v) Tween-20 in PBS, 1×). Full-length His-tagged IL-17F (ab167911, Abcam) and IL-17A (ab166882, Abcam) proteins were prepared at 100 nM in Wash Buffer and incubated in the designated microwells for 90 min at room temperature. Microwells were aspirated and subsequently washed with Wash Buffer (10×). To detect the bound IL-17F and IL-17A proteins, Alkaline Phosphatase (AP)-conjugated Anti-6×His Tag® antibody [HIS-1] (ab49746, Abcam) was prepared at 1:10,000 dilution and added to the microwells for 1 h at room temperature. The plate was aspirated and washed with Wash Buffer (5×). AttoPhos® AP Fluorescent Substrate System (S1000, Promega) was employed to develop the microwells. Using an excitation wavelength of 430 nm, fluorescent emission at 535 nm was recorded by Beckman Coulter DTX880 photometer.
as §1

[2] = test system: His-tagged IL-17F epitopes; experiment: Assay to determine orientation of macrocycle binding to IL-17F Epitope1 (point ELISA); conditions: for binding to epitope scrambled N-terminal to the click handle: epitope 2 μM, no-epitope background subtracted; for binding to the His-tagged IL-17F epitopes (overall, preferred sequence): three His-tagged epitopes, 2 μM
Description: Assay to determine orientation of macrocycle binding to IL-17F Epitope1. A black 96-well NeutrAvidin Coated High Binding Capacity plate (15510, Pierce) was coated with 2 μM macrocyclic peptide ligand in TBS (pH 7.6) for 2 h at room temperature. Biotinylated monoclonal anti-IL17F (TA319597, Origene) was coated at 4 μg/mL in TBS as a control. The plate was aspirated and then washed with TBS (5×) and Wash Buffer (0.05% (v/v) Tween-20 in PBS, 1×). Chemically synthesized His-tagged IL-17F epitopes were prepared at 2 μM in Wash Buffer and incubated in the designated microwells for 90 min at room temperature. Wash Buffer without epitope was added as a control. Microwells were aspirated and subsequently washed with Wash Buffer (10×). To detect the bound IL-17F epitopes, Alkaline Phosphatase (AP)-conjugated Anti-6×His Tag® antibody [HIS-1] (ab49746, Abcam) was prepared at 1:10,000 dilution and added to the microwells for 1 h at room temperature. The plate was aspirated and washed with Wash Buffer (5×). AttoPhos® AP Fluorescent Substrate System (S1000, Promega) was employed to develop the microwells. Using an excitation wavelength of 430 nm, fluorescent emission at 535 nm was recorded by Beckman Coulter DTX880 photometer. Data are shown after subtraction of the no-epitope background.
For this experiment, the IL-17F Epitope1 was re-synthesized with a His6 assay handle and C48S substitution instead of a click handle. Two additional His-tagged IL-17F epitopes were synthesized to contain strategic scrambling of the sequences either N-terminal or C-terminal to C48S. Point ELISAs for the three His-tagged IL-17F epitopes were conducted against the immobilized macrocyclic peptide ligands.

[3] = biological target: T1, IL-17F (Homo sapiens, UniProt Q96PD4); experiment: Sandwich ELISA: immobilized macrocyclic peptide ligand captures full-length His-tagged IL-17F; assay type: binding; parameters: Full-length His-tagged IL-17F protein (ab167911, Abcam); purchased Abcam ab167911
T1 sequence (Q96PD4 31-163): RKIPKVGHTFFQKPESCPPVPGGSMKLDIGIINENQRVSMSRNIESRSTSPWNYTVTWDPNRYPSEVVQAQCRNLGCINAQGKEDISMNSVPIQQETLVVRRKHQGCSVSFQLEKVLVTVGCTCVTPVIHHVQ
Description: Sandwich ELISA. A black 96-well NeutrAvidin Coated High Binding Capacity plate (15510, Pierce) was coated with 2 μM macrocyclic peptide ligand in TBS (25 mM Tris-HCl, 150 mM NaCl, pH 7.6) for 2 h at room temperature. Biotinylated monoclonal anti-IL17F (TA319597, Origene) was coated at 4 μg/mL in TBS as a control. The plate was aspirated and then washed with TBS (5×) and Wash Buffer (0.05% (v/v) Tween-20 in PBS, 1×). Full-length His-tagged IL-17F protein (ab167911, Abcam) was serially diluted in Wash Buffer (from 800 to 0 nM) and incubated in the designated microwells for 90 min at room temperature. Microwells were aspirated and subsequently washed with Wash Buffer (10×). […] (ab49746, Abcam) was prepared at 1:10,000 dilution and added to the microwells for 1 h at room temperature. The plate was aspirated and washed with Wash Buffer (5×). AttoPhos® AP Fluorescent Substrate System (S1000, Promega) was employed to develop the microwells. Using an excitation wavelength of 430 nm, fluorescent emission at 535 nm was recorded by Beckman Coulter DTX880 photometer. Titration curves were fit using a four-parameter regression curve fitting program (Origin 8.5) to determine EC50 values.
For these assays, a dilution series of full-length His-tagged IL-17F protein was captured using the macrocyclic peptide ligands immobilized on a NeutrAvidin-coated plate.
Sandwich ELISA. […]

[4] = biological target: T1, IL-17F; experiment: KD of PCC macrocycles and biligands against IL-17F (FIG. 12C); assay type: binding
[5] = biological target: Plasmodium falciparum Histidine Rich Protein-2 (Pf.HRP-2) (Plasmodium falciparum, UniProt P05227); assay type: binding

Compound: NCCCC[C@@H]1NC(=O)[C@H](CCCCN)NC(=O)[C@@H](NC(=O)COCCOCCOCCNC(=O)CCCC[C@@H]2SC[C@@H]3NC(=O)N[C@@H]32)Cc2cn(nn2)CCCC[C@@H](C(N)=O)NC(=O)[C@@H]2CCCN2C(=O)[C@H](Cc2c[nH]c3ccccc23)NC(=O)CNC1=O [Cy(KKGWP), Biotin-PEG3-Cy(KKGWP) (SEQ ID NO:23)] ({Biotin-AEEEA}-[Pra]KKGWP[Lys(N3)]-NH2; triazole 1-7)
preferential binding, IL-17F vs IL-17A (in words) [1]: preferential binding to IL-17F

Compound: NCCCC[C@@H]1NC(=O)[C@H](CCC(N)=O)NC(=O)[C@@H](N)Cc2cn(nn2)CCCC[C@@H](C(=O)NCCCOCCOCCOCCCNC(=O)CCCC[C@@H]2SC[C@@H]3NC(=O)N[C@@H]32)NC(=O)[C@@H]2CCCN2C(=O)CNC(=O)[C@H](Cc2c[nH]cn2)NC1=O [Cy(QKHGP), Cy(QKHGP) (SEQ ID NO:15)-PEG3-biotin] (H-[Pra]QKHGP[Lys(N3)]-X2; triazole 1-7)
preferential binding, IL-17F vs IL-17A (in words) [1]: preferential binding to IL-17F | preferential binding, IL-17F vs IL-17A (in words) ([1]; listed as QKHGP): preferential binding to IL-17F or IL-17A

Compound: C[C@@H]1NC(=O)[C@H](CCCNC(=N)N)NC(=O)[C@H](CCCNC(=N)N)NC(=O)[C@@H](NC(=O)COCCOCCOCCNC(=O)[C@@H]2CCCCn3cc(nn3)C[C@H](NC(=O)COCCOCCOCCNC(=O)CCCC[C@@H]3SC[C@@H]4NC(=O)N[C@@H]43)C(=O)N[C@@H](CCCNC(=N)N)C(=O)N[C@@H](CO)C(=O)N[C@@H](Cc3ccc(O)cc3)C(=O)N[C@@H](CC(N)=O)C(=O)N[C@@H](CCCCN)C(=O)N2)Cc2cn(nn2)CCCC[C@@H](C(N)=O)NC(=O)[C@H](CO)NC(=O)[C@H]([C@@H](C)O)NC1=O [Cy(RSYNK)-PEG3-Cy(RRATS), Biotin-PEG3-Cy(RSYNK) (SEQ ID NO:28)-PEG3-Cy(RRATS) (SEQ ID NO: 9)] ({Biotin-AEEEA}-[Pra]RSYNK[Lys(N3)][AEEEA][Pra]RRATS[Lys(N3)]-NH2; triazole 1-7, 9-15)
Kd [4]: 0.25 nM | improvement in affinity relative to the individual PCC macrocyclic ligands [4]: > 100 fold

Compound: C[C@@H](O)[C@@H]1NC(=O)[C@@H](N)Cc2cn(nn2)CCCC[C@@H](C(=O)NCCCOCCOCCOCCCNC(=O)CCCC[C@@H]2SC[C@@H]3NC(=O)N[C@@H]32)NC(=O)[C@@H]2CCCN2C(=O)CNC(=O)[C@H](Cc2c[nH]cn2)NC(=O)[C@H](CCCCN)NC1=O [Cy(TKHGP), Cy(TKHGP) (SEQ ID NO:16)-PEG3-biotin] (H-[Pra]TKHGP[Lys(N3)]-X2; triazole 1-7)
preferential binding, IL-17F vs IL-17A (in words) [1]: preferential binding to IL-17F

Compound: N=C(N)NCCC[C@@H]1NC(=O)[C@H](Cc2ccc(O)cc2)NC(=O)[C@H](Cc2ccc(O)cc2)NC(=O)[C@H](CCCCN)NC(=O)[C@H](Cc2ccc(O)cc2)NC(=O)[C@@H](N)Cc2cn(nn2)CCCC[C@@H](C(N)=O)NC1=O [Cy(YKYYR), Cy(YKYYR) (SEQ ID NO:29)] (H-[Pra]YKYYR[Lys(N3)]-NH2; triazole 1-7)
EC50 [5]: 220 nM

Continued, in another order:

preferential binding, IL-17F vs IL-17A (in words) [1]: preferential binding to IL-17F | binding to epitope scrambled N-terminal to the click handle [2]: Binding was destroyed
Compound: C[C@@H]1NC(=O)[C@H](CCCNC(=N)N)NC(=O)[C@H](CCCNC(=N)N)NC(=O)[C@@H](N)Cc2cn(nn2)CCCC[C@@H](C(=O)NCCCOCCOCCOCCCNC(=O)CCCCC2SC[C@H]3NC(=O)N[C@@H]23)NC(=O)[C@H](CO)NC(=O)[C@H](CCC(N)=O)NC1=O (stereo partly shown) [Cy(RRAQS), Cy(RRAQS) (SEQ ID NO:10)-PEG3-biotin] (H-[Pra]RRAQS[Lys(N3)]-X1; triazole 1-7)
binding to the His-tagged IL-17F epitopes (overall, preferred sequence) [2]: preferential binding to the sequence FFQKPES

preferential binding, IL-17F vs IL-17A (in words) [1]: preferential binding to IL-17F | preferential binding, IL-17F vs IL-17A (in words) ([1]; listed as RRATS): preferential binding to IL-17F or IL-17A | binding to epitope scrambled N-terminal to the click handle [2]: Binding was destroyed
Compound: CC(O)[C@@H]1NC(=O)[C@H](C)NC(=O)[C@H](CCCNC(=N)N)NC(=O)[C@H](CCCNC(=N)N)NC(=O)[C@@H](N)Cc2cn(nn2)CCCC[C@@H](C(=O)NCCCOCCOCCOCCCNC(=O)CCCCC2SC[C@H]3NC(=O)N[C@@H]23)NC(=O)[C@H](CO)NC1=O (stereo partly shown) [Cy(RRATS), Cy(RRATS) (SEQ ID NO:9)-PEG3-biotin] (H-[Pra]RRA[Thr(3ξ)]S[Lys(N3)]-X1; triazole 1-7)
binding to the His-tagged IL-17F epitopes (overall, preferred sequence) [2]: preferential binding to the sequence FFQKPES

preferential binding, IL-17F vs IL-17A (in words) [1]: preferential binding to IL-17F | preferential binding, IL-17F vs IL-17A (in words) ([1]; listed as RSYNK): preferential binding to IL-17F or IL-17A | EC50 ([3]; 2 μM PEG3-biotin ligand on NeutrAvidin plate, His-tagged IL-17F 800 to 0 nM): 15 ± 5 nM | Kd ([4]; read-out: KD against IL-17F): 15 nM
Compound: CC1N[C@@H](CCCCN)C(=O)N[C@H](C(N)=O)CCCCn2cc(nn2)C[C@H](NC(=O)COCCOCCOCCNC(=O)CCCC[C@@H]2SC[C@@H]3NC(=O)N[C@@H]32)C(=O)N[C@@H](CCCNC(=N)N)C(=O)N[C@@H](CO)C(=O)N[C@@H](Cc2ccc(O)cc2)C(=O)N[C@H]1CC(N)=O (stereo partly shown) [Cy(RSYNK), Biotin-PEG3-Cy(RSYNK) (SEQ ID NO:28)]
binding affinity compared in words (ligand vs biotinylated monoclonal anti-IL17F) ([3]; antibody coated at 4 μg/mL): exceeds the binding affinity of the similarly assayed biotinylated monoclonal anti-IL17F
